| melting point [°C] | Structure (SMILES) |
| --- | --- |
| 278 to 282 | CN(C)CC(=O)NCc1ccc(-c2cc3c(Nc4ccc(F)c(Cl)c4)ncnc3[nH]2)cc1 [Example 46, N-{4-[4-(3-Chloro-4-fluoro-phenylamino)-7H-pyrrolo[2,3-d]pyrimidin-6-yl]-benzyl}-2-dimethylamino-acetamide] |
| 229 to 232 | O=C(CN1CCCCC1)NCc1ccc(-c2cc3c(Nc4ccc(F)c(Cl)c4)ncnc3[nH]2)cc1 [Example 49, N-{4-[4-(3-Chloro-4-fluoro-phenylamino)-7H-pyrrolo[2,3-d]pyrimidin-6-yl]-benzyl}-2-piperidin-1-yl-acetamide] |
| 246 to 249 | CN1CCN(CC(=O)NCc2ccc(-c3cc4c(Nc5ccc(F)c(Cl)c5)ncnc4[nH]3)cc2)CC1 [Example 50, N-{4-[4-(3-Chloro-4-fluoro-phenylamino)-7H-pyrrolo[2,3-d]pyrimidin-6-yl]-benzyl}-2-(4-methyl-piperazin-1-yl)-acetamide] |
| 229 to 232 | CCN(CC)CCC(=O)NCc1ccc(-c2cc3c(Nc4ccc(F)c(Cl)c4)ncnc3[nH]2)cc1 [Example 58, N-{4-[4-(3-Chloro-4-fluoro-phenylamino)-7H-pyrrolo[2,3-d]pyrimidin-6-yl]-benzyl}-3-diethylamino-propionamide] |
| 272 to 273 | CN(C)CC(=O)NCc1cccc(-c2cc3c(Nc4ccc(F)c(Cl)c4)ncnc3[nH]2)c1 [Example 64, N-{3-[4-(3-Chloro-4-fluoro-phenylamino)-7H-pyrrolo[2,3-d]pyrimidin-6-yl]-benzyl}-2-dimethylamino-acetamide] |
| 214 | CN1CCN(CC(=O)NCc2cccc(-c3cc4c(Nc5ccc(F)c(Cl)c5)ncnc4[nH]3)c2)CC1 [Example 65, N-{3-[4-(3-Chloro-4-fluoro-phenylamino)-7H-pyrrolo[2,3-d]pyrimidin-6-yl]-benzyl}-2-(4-methyl-piperazin-1-yl)-acetamide] |
| 252 to 254 | O=C(CN1CCCCC1)NCc1cccc(-c2cc3c(Nc4ccc(F)c(Cl)c4)ncnc3[nH]2)c1 [Example 66, N-{3-[4-(3-Chloro-4-fluoro-phenylamino)-7H-pyrrolo[2,3-d]pyrimidin-6-yl]-benzyl}-2-piperidin-1-yl-acetamide] |

The next lines start with the compound.

| Structure (SMILES) | melting point [°C] |
| --- | --- |
| C[C@@H](Nc1ncnc2[nH]c(-c3ccc(CNC(=O)CN4CCCC4)cc3)cc12)c1ccccc1 [Example 41, N-{4-[4-((R)-1-Phenyl-ethylamino)-7H-pyrrolo[2,3-d]pyrimidin-6-yl]-benzyl}-2-pyrrolidin-1-yl-acetamide] | 196 to 198 |
| C[C@@H](Nc1ncnc2[nH]c(-c3ccc(CNC(=O)CN4CCOCC4)cc3)cc12)c1ccccc1 [Example 42, 2-Morpholin-4-yl-N-{4-[4-((R)-1-phenyl-ethyl-amino)-7H-pyrrolo[2,3-d]pyrimidin-6-yl]-benzyl}-acetamide] | 199 to 202 |
| C[C@@H](Nc1ncnc2[nH]c(-c3ccc(CNC(=O)CN(C)C)cc3)cc12)c1ccccc1 [Example 44, 2-Dimethylamino-N-{4-[4-((R)-1-phenyl-ethyl-amino)-7H-pyrrolo[2,3-d]pyrimidin-6-yl]-benzyl}-acetamide] | 263 to 266 |
| CCN1CCN(CC(=O)NCc2ccc(-c3cc4c(N[C@H](C)c5ccccc5)ncnc4[nH]3)cc2)CC1 [Example 45, 2-(4-Ethyl-piperazin-1-yl)-N-{4-[4-((R)-1-phenyl-ethylamino)-7H-pyrrolo[2,3-d]pyrimidin-6-yl]-benzyl}-acetamide] | 121 to 124 |
| CCN1CCN(CC(=O)NCc2ccc(-c3cc4c(Nc5ccc(F)c(Cl)c5)ncnc4[nH]3)cc2)CC1 [Example 47, N-{4-[4-(3-Chloro-4-fluoro-phenylamino)-7H-pyrrolo[2,3-d]pyrimidin-6-yl]-benzyl}-2-(4-ethyl-piperazin-1-yl)-acetamide] | 245 to 247 |
| CN(C)CC(=O)NCc1ccc(-c2cc3c(Nc4ccc(OCc5ccccc5)cc4)ncnc3[nH]2)cc1 [Example 51, N-{4-[4-(4-Benzyloxy-phenylamino)-7H-pyrrolo[2,3-d]pyrimidin-6-yl]-benzyl}-2-dimethylamino-acetamide] | 233 to 235 |
| O=C(CN1CCCCC1)NCc1ccc(-c2cc3c(Nc4ccc(OCc5ccccc5)cc4)ncnc3[nH]2)cc1 [Example 53, N-{4-[4-(4-Benzyloxy-phenylamino)-7H-pyrrolo[2,3-d]pyrimidin-6-yl]-benzyl}-2-piperidin-1-yl-acetamide] | 246 to 248 |
| C[C@@H](Nc1ncnc2[nH]c(-c3ccc(CNC(=O)CCN4CCCCC4)cc3)cc12)c1ccccc1 [Example 54, N-{4-[4-((R)-1-Phenyl-ethylamino)-7H-pyrrolo[2,3-d]pyrimidin-6-yl]-benzyl}-3-piperidin-1-yl-propionamide] | 140 |
| CCN(CC)CCC(=O)NCc1ccc(-c2cc3c(N[C@H](C)c4ccccc4)ncnc3[nH]2)cc1 [Example 55, 3-Diethylamino-N-{4-[4-((R)-1-phenyl-ethyl-amino)-7H-pyrrolo[2,3-d]pyrimidin-6-yl]-benzyl}-propionamide] | 175 to 177 |
| C[C@@H](Nc1ncnc2[nH]c(-c3ccc(CNC(=O)CCCN(C)C)cc3)cc12)c1ccccc1 [Example 56, 4-Dimethylamino-N-{4-[4-((R)-1-phenyl-ethyl-amino)-7H-pyrrolo[2,3-d]pyrimidin-6-yl]-benzyl}-butyramide] | 195 to 203 |
| C[C@@H](Nc1ncnc2[nH]c(-c3ccc(CNC(=O)c4ccccn4)cc3)cc12)c1ccccc1 [Example 57, Pyridine-2-carboxylic acid 4-[4-((R)-1-phenyl-ethylamino)-7H-pyrrolo[2,3-d]pyrimidin-6-yl]-benzylamide] | 221 to 223 |
| O=C(NCc1ccc(-c2cc3c(Nc4ccc(F)c(Cl)c4)ncnc3[nH]2)cc1)c1ccccn1 [Example 59, Pyridine-2-carboxylic acid 4-[4-(3-chloro-4-fluoro-phenylamino)-7H-pyrrolo[2,3-d]pyrimidin-6-yl]-benzylamide] | 340 to 342 |
| O=C(CCN1CCCCC1)NCc1ccc(-c2cc3c(Nc4ccc(F)c(Cl)c4)ncnc3[nH]2)cc1 [Example 61, N-{4-[4-(3-Chloro-4-fluoro-phenylamino)-7H-pyrrolo[2,3-d]pyrimidin-6-yl]-benzyl}-3-piperidin-1-yl-propionamide] | 230 to 235 |
| Cc1ccc(Nc2ncnc3[nH]c(-c4cccc(CN5CCN(C)CC5)c4)cc23)cc1O [Example 67, 2-Methyl-5-{6-[3-(4-methyl-piperazin-1-ylmethyl)-phenyl]-7H-pyrrolo[2,3-d]pyrimidin-4-ylamino}-phenol] | 256 to 258 |
| COc1ccc(Nc2ncnc3[nH]c(-c4cccc(CN5CCN(C)CC5)c4)cc23)cc1O [Example 69, 2-Methoxy-5-{6-[3-(4-methyl-piperazin-1-ylmethyl)-phenyl]-7H-pyrrolo[2,3-d]pyrimidin-4-ylamino}-phenol] | 251 to 252 |
| Cc1ccc(Nc2ncnc3[nH]c(-c4ccc(CN5CCN(C)CC5)cc4)cc23)cc1O [Example 72, 2-Methyl-5-{6-[4-(4-methyl-piperazin-1-ylmethyl)-phenyl]-7H-pyrrolo[2,3-d]pyrimidin-4-ylamino}-phenol] | > 300 |

Source: patent publication US7323469B2, “7H-pyrrolo[2,3-d]pyrimidine derivatives” (Novartis AG, priority 2001, dated 2008)
